This is an account of results in paper PMC11754443, “Synthesis, H2S releasing properties, antiviral and antioxidant activities and acute cardiac effects of nucleoside 5′-dithioacetates” (Scientific Reports, 2025).

Values joined by “and” are separate entries in the source; they are usually repeats but may differ in a detail not shown here. Identical values can stand only once. Like-named read-outs stand apart in the source and are kept apart here.

For series [1], the system named is anaesthetized Sprague-Dawley rats. Description: Cardiac effects by ECG and echocardiography in anaesthetized rats. Format: in vivo, rat. The following applies: for Ejection Fraction / Heart rate / PR interval / QT interval / Stroke Volume: anaesthetized SD rats, 30 s after administration, mean ± SD. As to the method: The animals received humane care, and all experimental procedures were carried out in accordance with the “Principles of Laboratory Animal Care” by EU Directive 2010/63/EU. All experimental protocols were approved by the local Ethics Committee of University of Debrecen (25/2023/DEMÁB). Animal experiments are reported in compliance with the ARRIVE guidelines. Anesthesia was carried out using ketamine/xylazine mixture (100/10 mg/kg, i.m.). The chest was shaved and the animal was placed onto a heated pad (VisualSonics SR200, VisualSonics, Amsterdam, The Netherlands). The lateral tail vein was cannulated using a heparinized 26G i.v. cannula (BD Neoflon, BD Medical, NJ, USA). B-mode and M-mode echocardiography was carried out before and 30 s after the intravenous administration of the compounds. A high-resolution ultrasound machine (Vevo 3100 Imaging Station, VisualSonics, Amsterdam, The Netherlands) equipped with a […] transducer (MX201) was used for assessing cardiac parameters. Traces were obtained from the parasternal long axis view (PLAX). A B-mode video and an M-mode trace was recorded, and the following parameters were then offline analysed: left ventricle (LV) end-systolic and end-diastolic volume (LVESV, LVEDV, respectively) fractional shortening (FS) and ejection fraction (EF) and stroke volume (SV).
A 3-channel ECG was continuously recorded during the experiments (Vevo monitor ECG, VisualSonics, Amsterdam, The Netherlands). On the recorded ECG data, RR, PR and QT intervals, and heart rate (HR) were determined before and 30 s after the administration of the drugs, and 6 consecutive cardiac cycles were averaged for each parameter.
Statistical analyses for the in vivo studies were carried out using the GraphPad Prism 9.0 software (GraphPad Software, San Diego, CA, USA). Data distribution was assessed by the Shapiro-Wilk normality test, and paired t-test were used to determine the differences between the baseline (drug free) and endpoint (treated) parameters in each group. A multiple comparison was also carried out between the treatment groups by using one-way ANOVA with Tukey multiple comparison test. Data was shown as mean ± SD, and differences with p < 0.05 were considered significant.

Series [2] can be described thus: DPPH radical scavenging assay. The note with it: for DPPH inhibition ratio (IR) after 30-min incubation / DPPH inhibition ratio (IR) immediately: 0.5 mM. As to the method: DPPH is a stable free radical with a deep violet color that changes to yellow when neutralized by an electron or hydrogen radical, indicating the antioxidant activity of the sample being tested. The DPPH radical scavenging abilities were investigated following the method outlined by Shimamura et al., with minor adjustments. In this study, a cardiovascular tissue homogenate was used to induce H2S release from the dithioacetate derivatives 22 and 24, as well as GYY4137. A mixed solution of 1.2 mL of methanol and 800 µL of 0.1 M Tris-HCl buffer (pH 7.4) served as the blank. 1 mL DPPH solution was added to a mixture of methanol and 0.1 M Tris-HCl buffer (200:800 µL). After mixing, the absorbance was recorded at 517 nm on a UV-1600 PC VWR spectrophotometer (VWR, China). To avoid any potential interference from the heart extract in the assay, we measured the absorbance after adding different volumes of the extract into the mixture. These measurements were taken both immediately and after 30 min of incubation.
The DPPH antioxidant assay was performed according to the following procedures. 1 mL of DPPH solution was added to a mixture of 200 µL of the methanolic sample solution and 800 µL of 0.1 M Tris-HCl buffer (pH = 7.4). For the groups containing the extract, the extract was introduced into a mixture of the sample solution in PBS buffer, 0.1 M Tris-HCl buffer, and DPPH (200:800:1000 µL). Considering that GYY4137 produces H2S upon hydrolysis, it was introduced last following the addition of the extract into a solution of PBS buffer, 0.1 M Tris-HCl buffer, and DPPH maintained at the same ratio. The same protocol was employed for NaHS without the addition of the extract. After mixing, the absorbance was promptly recorded, after which the solutions were incubated in the dark at room temperature for 30 min before the absorbance was measured again. The test samples were prepared and assayed at varying concentrations using a 2-fold serial dilution method, starting from a concentration of 2 mM. Each investigation was performed in triplicate, and the antioxidant activity was based on the absorbance recorded at 517 nm. Ascorbic acid (AA), GYY4137, and NaHS served as positive controls, while the unmodified nucleosides were used as reference compounds.
The inhibition ratio (IR) was calculated as follows: [drawing 1] where Ac is the absorbance when methanol is added instead of the sample and As is the absorbance when the testing sample solution is added.
The antioxidant capacity was expressed as the concentration needed to achieve a 50% inhibition of the free radical (IC50). The IC50 values were calculated by plotting the percent of inhibition as a function of sample concentration.
In general terms: DPPH is a stable violet radical that fades when it is reduced.

Series [3] in a line: H2S release detected with amperometric H2S-specific sensor in DMEM. The note with it: DMEM with 10% FBS, 0.28-0.32 mM compound. As to the method: The H2S-donating ability of compound 22, 24, 27, 29 and 30 (0.5 mg dissolved in 0.1 mL of DMSO) was detected in Dulbecco’s modified Eagle’s medium (DMEM) (4.9 mL) supplemented with 10% fetal bovine serum and 1% penicillin-streptomycin. The final concentrations were 0.31 mM for compound 22, 0.29 mM for compound 24, 0.28 mM for compound 27, 0.32 mM for compound 29 and 0.32 mM for compound 30, respectively. The released H2S was detected by an amperometric, H2S specific sensor (ISO-H2S-100, World Precision Instruments, Saratosa, FL, USA) connected to a WPI TBR 1025 One-Channel Free Radical Analyzer. The sensor was set to 10 nA range and poise voltage to + 150 mV. Before the measurements the sensor was polarized in phosphate buffered saline (PBS) for 12 h[19]. The H2S-release of NaHS was detected in distilled water (0.1 mg in 5 mL of H2O; 0.36 mM) and the H2S-release of GYY4137 was measured in DMEM (0.5 mg of GYY4137 in 5 mL of medium; 0.27 mM).

For series [4], the system named is SARS-CoV-2 (strain hCoV-19/Czech Republic/NRL_6632_2/2020). Description: Anti-SARS-CoV-2 cytopathic-effect-based assay in Calu-3 cells (CellTiter-Glo). The following applies: compound added 2 h after infection, MOI 0.3, read after two days, read-out: EC50 ± SE, anti-SARS-CoV-2 activity. The series is classed as cell-based.
For series [5], the system named is Calu-3 cells. Description: Cytotoxicity in Calu-3 cells (CellTiter-Glo). The series is classed as cell-based, human. The note with it: Calu-3 cells, no virus, two days incubation; read-out: CC50 ± SE, cytotoxicity in Calu-3 cells. As to the method: Cytotoxicity was evaluated by incubating the same two-fold serial dilutions of each compound with Calu-3 cells as above in the absence of the virus. Following two days incubation at 37 °C in 5% CO2, the cell viability was determined as above. The compound concentrations resulting in 50% reduction of cell viability (CC50) were calculated from plots of percentage of luminescence versus log10 drug concentration as above. Remdesivir was used as control in both assays.
For orientation: Cellular ATP, detected with luciferase, serves as a proxy for viable cell number.

Series [6] deals with SARS-CoV-2. Format: cell-based. The following applies: medium of Calu-3 cells infected 2 days at the highest compound concentration, plaque assay in Vero E6 cells.
Where [7] appears, read: anaesthetized rats, 2 mg/kg i.v.
The mark [8] stands for this setting: after 30 min incubation, without extract, read-out: DPPH IC50 30 min.
The mark [9] stands for this setting: measured immediately, without extract, read-out: DPPH IC50 immediately.
Setting [10] is: after 30 min incubation, with 20 µL homogenized rat heart extract, read-out: DPPH IC50 30 min, + extract (20 µL).
Where [11] appears, read: measured immediately, with 20 µL homogenized rat heart extract, read-out: DPPH IC50 immediately, + extract (20 µL).

As for `Nc1ncnc2c1ncn2[C@@H]1O[C@H](CO)[C@@H](O)[C@H]1O` [Adenosine, reference compound], in series [1] (2 mg/kg i.v.), the “Ejection Fraction” value amounted to 71.25±2.958%, the Heart rate is recorded as 67.38±16.46 bpm, the PR interval amounted to 59.50 ± 10.63 ms and the QT interval was 195.0 ± 31.69 ms. Further, in series [1] (2 mg/kg i.v.), the “Stroke Volume” value was found to be 396.8 ± 130.4 µL. For the same compound, in series [1] (setting [7]), the “time within which negative chronotropic effect dissipated” value was “approximately 60 s”. The “heart block (in words)” value in series [1] (rat, in vivo, iv, 2 mg/kg) is “induced heart block”.
In general, IC50 refers to the concentration needed to halve the response being measured. `O=C1O[C@H]([C@@H](O)CO)C(O)=C1O` [Ascorbic acid (AA), Ascorbic acid, reference compound]: the “DPPH inhibition ratio (IR) after 30-min incubation” value in series [2] (after 30 min incubation) is reported as 97.13%. Moreover, in series [2], the “DPPH inhibition ratio (IR) immediately” value was found to be 97.25%. The IC50 in series [2] (setting [8]) and in series [2] (setting [9]) was 0.06 mM throughout.
Turning to `C1COCCN1.COc1ccc(P(=S)(S)N2CCOCC2)cc1` (stereo not drawn) [GYY4137, reference compound], the “DPPH inhibition ratio (IR) after 30-min incubation” value in series [2] (after 30 min incubation) was 10.63%. Moreover, the “DPPH inhibition ratio (IR) immediately” value in series [2] is given as 5.95%.
In the case of `[Na+].[SH-]` [NaHS, sodium hydrosulfide, reference compound], the “DPPH inhibition ratio (IR) after 30-min incubation” value in series [2] (after 30 min incubation) is 90% and 90.03%. In addition, in series [2], the “DPPH inhibition ratio (IR) immediately” value is 56.14%.
Consider `O=c1ccn([C@@H]2O[C@H](CO)[C@@H](O)[C@H]2O)c(=O)[nH]1` [Uridine, reference compound], for which the IC50 in series [2] (setting [8]) and in series [2] (setting [9]) was more than 100 mM in each case.
One may read the EC50 as the concentration giving half of the maximal effect. The CC50 is the concentration giving 50% cytotoxicity. Regarding “S-(Adenosine-5′-yl)-dithioacetic acid [Compound 24]”, in series [3], the “persistence of measurable H2S release” value is on record as “remained at a measurable level even after two hours” and the “time at which H2S gas release reached the maximum level” value lay in the range of 10 to 20 min. In addition, the IC50 in series [2] (setting [10]) worked out at 1.62 mM. In series [2] (setting [8]), the IC50 was determined as 2.58 mM. In addition, the IC50 in series [2] (setting [11]) worked out at 2.66 mM. Also, the concentration for half-maximal inhibition (IC50) in series [2] (setting [9]) amounted to 3.54 mM. For the same compound, the EC50 in series [4] is 173 ± 24 µM. In addition, the half-maximal cytotoxic concentration (CC50) in series [5] was approximately 1 mM. This compound returned an SARS-CoV-2 titer reduction in series [6] of 0 log10 PFU/mL. In series [1] (2 mg/kg i.v.), the “Ejection Fraction” value came to 80.70±5.230%, the Heart rate was found to be 120.5±29.19 bpm, the PR interval was 47.00 ± 3.742 ms and the QT interval came out at 172.3 ± 46.85 ms. The “Stroke Volume” value in series [1] (2 mg/kg i.v.) was 416.5 ± 93.56 µL. For the same compound, in series [1] (setting [7]), the “duration of negative chronotropic action compared with adenosine” value is reported as “their duration of action was longer”; the “heart block (in words)” value is “None of the new compounds (22, 24, and 34) induced complete heart block or pauses”.
As for “S-(Cytidine-5′-yl)-dithioacetic acid [Compound 29]”, in series [3], the “persistence of measurable H2S release” value is listed as “remained at a measurable level even after two hours” and the “time at which H2S gas release reached the maximum level” value lay in the range of 10 to 20 min. In addition, the half-maximal effective concentration (EC50) in series [4] was more than 1000 µM. For the same compound, the CC50 in series [5] is more than 1 mM. The compound also came in with an SARS-CoV-2 titer reduction in series [6] of 0.13 log10 PFU/mL.
Take “S-(Guanosine-5′-yl)-dithioacetic acid [Compound 27]”: in series [3], the “persistence of measurable H2S release” value is given as “remained at a measurable level even after two hours” and the “time at which H2S gas release reached the maximum level” value was 10 to 20 min. The EC50 in series [4] is 158 ± 34 µM. Also, the CC50 in series [5] was more than 1 mM. The compound also displayed an SARS-CoV-2 titer reduction in series [6] of 0.38 log10 PFU/mL.
The corresponding values for “S-(Thymidine-5′-yl)-dithioacetic acid [Compound 30]” are “remained at a measurable level even after two hours”, 10 to 20 min, 621 ± 181 µM, 0.764 ± 0.082 mM and 0.01 log10 PFU/mL.
“S-(Uridine-5′-yl)-dithioacetic acid [Compound 22]”: in series [3], the “persistence of measurable H2S release” value was “remained at a measurable level even after two hours” and the “time at which H2S gas release reached the maximum level” value was 10 to 20 min. For the same compound, the IC50 in series [2] (setting [10]) was found to be 1.57 mM. The half-inhibitory concentration (IC50) in series [2] (setting [8]) stood at 3.63 mM. Further, the IC50 in series [2] (setting [11]) stood at 3.52 mM. The IC50 in series [2] (setting [9]) came to 5.56 mM. Besides, the EC50 in series [4] was more than 1000 µM. In series [5], the CC50 is more than 1 mM. In series [6], the SARS-CoV-2 titer reduction is reported as 0.02 log10 PFU/mL. Further, in series [1] (2 mg/kg i.v.), the “Ejection Fraction” value was determined as 68.70±4.226%, the Heart rate was 172.3±19.45 bpm, the PR interval is 51.2 ± 7.530 ms and the QT interval was determined as 122.2 ± 10.73 ms. Also, the “Stroke Volume” value in series [1] (2 mg/kg i.v.) came to 344.6 ± 81.32 µL. In series [1] (setting [7]), the “heart block (in words)” value was “None of the new compounds (22, 24, and 34) induced complete heart block or pauses”.
